The series relates to CCRIS mutagenicity, Ames/micronucleus/aberration tests. The series can be described thus: CCRIS mutagenicity studies.
The mark [1] stands for this setting: Test System: AMES SALMONELLA TYPHIMURIUM, Strain/Indicator: TA98, Metabolic Activation: NONE, Method: STANDARD PLATE.
The mark [2] stands for this setting: Test System: AMES SALMONELLA TYPHIMURIUM, Strain/Indicator: TA98, Metabolic Activation: RAT, LIVER, S-9, AROCLOR 1254, Method: STANDARD PLATE.
The mark [3] stands for this setting: Test System: AMES SALMONELLA TYPHIMURIUM, Strain/Indicator: TA100, Metabolic Activation: NONE, Method: STANDARD PLATE.
Setting [4] is: Test System: AMES SALMONELLA TYPHIMURIUM, Strain/Indicator: TA1538, Metabolic Activation: RAT, LIVER, S-9, AROCLOR 1254, Method: STANDARD PLATE.
Where [5] appears, read: Test System: AMES SALMONELLA TYPHIMURIUM, Strain/Indicator: TA98, Metabolic Activation: NONE, Method: PREINCUBATION
[6] abbreviates: Test System: AMES SALMONELLA TYPHIMURIUM, Strain/Indicator: TA100, Metabolic Activation: NONE, Method: PREINCUBATION
The mark [7] stands for this setting: Test System: AMES SALMONELLA TYPHIMURIUM, Strain/Indicator: TA1535, Metabolic Activation: NONE, Method: PREINCUBATION
Setting [8] is: Test System: AMES SALMONELLA TYPHIMURIUM, Strain/Indicator: TA1537, Metabolic Activation: NONE, Method: PREINCUBATION

Calls of active or inactive are those of the source. No rule for the calls is given here.

These results are taken from PubChem BioAssay AID1259407 (Chemical Carcinogenesis Research Information System (CCRIS), 2018).

Regarding `c1cc2ccc3ccc4ccc5ccc6ccc1c1c2c3c4c5c61`, the mutagenic call was “inactive; negative” (Test System: AMES SALMONELLA TYPHIMURIUM, Strain/Indicator: TA97, Metabolic Activation: NONE, Method: STANDARD PLATE); “active; positive” (Test System: AMES SALMONELLA TYPHIMURIUM, Strain/Indicator: TA97, Metabolic Activation: RAT, LIVER, S-9, PCB, Method: STANDARD PLATE); “inactive; negative” under setting [1]; “active; positive” (Test System: AMES SALMONELLA TYPHIMURIUM, Strain/Indicator: TA98, Metabolic Activation: RAT, LIVER, S-9, AROCLOR 1254, Method: FLUCTUATION); “active; positive” under setting [2]; “active; positive” (Test System: AMES SALMONELLA TYPHIMURIUM, Strain/Indicator: TA98, Metabolic Activation: RAT, LIVER, S-9, PCB, Method: STANDARD PLATE). Moreover, the mutagenic call is “inactive; negative” under setting [3]; “inactive; negative” (Test System: AMES SALMONELLA TYPHIMURIUM, Strain/Indicator: TA100, Metabolic Activation: RAT, LIVER, S-9, PCB, Method: STANDARD PLATE); “active; positive” (Test System: AMES SALMONELLA TYPHIMURIUM, Strain/Indicator: TA1537, Metabolic Activation: RAT, LIVER, S-9, AROCLOR 1254, Method: STANDARD PLATE); “active; positive” under setting [4].
With `CC(=O)OC(C)(C)C`, the mutagenic call was “inactive; negative” under setting [5]; “inactive; negative” (Test System: AMES SALMONELLA TYPHIMURIUM, Strain/Indicator: TA98, Metabolic Activation: RAT, LIVER, S-9, AROCLOR 1254, Method: PREINCUBATION); “inactive; negative” under setting [6]; “inactive; negative” (Test System: AMES SALMONELLA TYPHIMURIUM, Strain/Indicator: TA100, Metabolic Activation: RAT, LIVER, S-9, AROCLOR 1254, Method: PREINCUBATION); “inactive; negative” (Test System: AMES SALMONELLA TYPHIMURIUM, Strain/Indicator: TA102, Metabolic Activation: NONE, Method: PREINCUBATION); “inactive; negative” (Test System: AMES SALMONELLA TYPHIMURIUM, Strain/Indicator: TA102, Metabolic Activation: RAT, LIVER, S-9, AROCLOR 1254, Method: PREINCUBATION). Besides, the mutagenic call runs as follows: under setting [7], “inactive; negative”; (Test System: AMES SALMONELLA TYPHIMURIUM, Strain/Indicator: TA1535, Metabolic Activation: RAT, LIVER, S-9, AROCLOR 1254, Method: PREINCUBATION) “inactive; negative”; under setting [8], “inactive; negative”; (Test System: AMES SALMONELLA TYPHIMURIUM, Strain/Indicator: TA1537, Metabolic Activation: RAT, LIVER, S-9, AROCLOR 1254, Method: PREINCUBATION) “inactive; negative”; (Test System: E. COLI, Strain/Indicator: WP2UVRA/PKM, Metabolic Activation: NONE, Method: PREINCUBATION) “inactive; negative”; (Test System: E. COLI, Strain/Indicator: WP2UVRA/PKM, Metabolic Activation: RAT, LIVER, S-9, AROCLOR 1254, Method: PREINCUBATION) “inactive; negative”.
With `CCc1c2ccccc2c(C)c2ccc3ccccc3c12`, the mutagenic call was “inactive; negative” (Test System: AMES SALMONELLA TYPHIMURIUM, Strain/Indicator: TA98, Method: STANDARD PLATE); “inactive; negative” (Test System: AMES SALMONELLA TYPHIMURIUM, Strain/Indicator: TA100, Metabolic Activation: RAT, LIVER, S-9, PHENOBARBITAL, Method: STANDARD PLATE); “inactive; negative” (Test System: AMES SALMONELLA TYPHIMURIUM, Strain/Indicator: TA100, Method: STANDARD PLATE).
With `CCC1(C(C)O)OC1(C(N)=O)C(=O)OC` (stereo unspecified), the mutagenic call was “inactive; negative” (Test System: AMES SALMONELLA TYPHIMURIUM, Strain/Indicator: TA98, Metabolic Activation: NONE, Method: DISK ASSAY); “inactive; negative” under setting [1]; “inactive; negative” (Test System: AMES SALMONELLA TYPHIMURIUM, Strain/Indicator: TA98, Metabolic Activation: RAT, LIVER, S-9, AROCLOR 1254, Method: DISK ASSAY); “inactive; negative” under setting [2].
Regarding `CCCc1cc(=O)oc2c3c(c4c(c12)OC(C)(C)C=C4)O[C@H](C)[C@@H](C)[C@H]3O`, the mutagenic call reads like this: (Test System: Mouse lymphoma, Strain/Indicator: L5178Y (tk+/tk-), Metabolic Activation: None, Method: Suspension/plate) “inactive; negative”; (Test System: Mouse lymphoma, Strain/Indicator: L5178Y (tk+/tk-), Metabolic Activation: Rat, Liver, S-9, Aroclor 1254, Method: Suspension/plate) “inactive; negative”.
Take `COC(=O)Nc1nc2ccc(/C(=N/O)c3ccc(F)cc3)cc2[nH]1`: the mutagenic call was “inactive; negative” under setting [1]; “active; positive” under setting [2]; “inactive; negative” under setting [3]; “inactive; negative” (Test System: AMES SALMONELLA TYPHIMURIUM, Strain/Indicator: TA100, Metabolic Activation: RAT, LIVER, S-9, AROCLOR 1254, Method: STANDARD PLATE).
In the case of `Cc1ccc(S(=O)(=O)Oc2ccc(N=Nc3ccc(-c4ccc(N=Nc5c(O)ccc6cc(S(=O)(=O)O)cc(S(=O)(=O)O)c56)c(C)c4)cc3C)cc2)cc1`, the mutagenic call (Test System: AMES SALMONELLA TYPHIMURIUM, Strain/Indicator: TA98, Metabolic Activation: HAMSTER, LIVER, S-9, AROCLOR 1254 (10%), Method: PREINCUBATION) was “active; positive”; the mutagenic call (Test System: AMES SALMONELLA TYPHIMURIUM, Strain/Indicator: TA98, Metabolic Activation: HAMSTER, LIVER, S-9, Method: PREINCUBATION (PRIVAL METHOD)) is “active; positive”; the mutagenic call under setting [5] was “inactive; negative”; the mutagenic call (Test System: AMES SALMONELLA TYPHIMURIUM, Strain/Indicator: TA98, Metabolic Activation: RAT, LIVER, S-9, AROCLOR 1254 (10%), Method: PREINCUBATION) was “inactive; negative”; the mutagenic call (Test System: AMES SALMONELLA TYPHIMURIUM, Strain/Indicator: TA100, Metabolic Activation: HAMSTER, LIVER, S-9, AROCLOR 1254 (10%), Method: PREINCUBATION) was “inactive; negative”; the mutagenic call under setting [6] is “inactive; negative”. Moreover, the mutagenic call is, setting by setting: (Test System: AMES SALMONELLA TYPHIMURIUM, Strain/Indicator: TA100, Metabolic Activation: RAT, LIVER, S-9, AROCLOR 1254 (10%), Method: PREINCUBATION) “inactive; negative”; (Test System: AMES SALMONELLA TYPHIMURIUM, Strain/Indicator: TA1535, Metabolic Activation: HAMSTER, LIVER, S-9, AROCLOR 1254 (10%), Method: PREINCUBATION) “inactive; negative”; under setting [7], “inactive; negative”; (Test System: AMES SALMONELLA TYPHIMURIUM, Strain/Indicator: TA1535, Metabolic Activation: RAT, LIVER, S-9, AROCLOR 1254 (10%), Method: PREINCUBATION) “inactive; negative”; (Test System: AMES SALMONELLA TYPHIMURIUM, Strain/Indicator: TA1537, Metabolic Activation: HAMSTER, LIVER, S-9, AROCLOR 1254 (10%), Method: PREINCUBATION) “inactive; negative”; under setting [8], “inactive; negative”. Further, the mutagenic call (Test System: AMES SALMONELLA TYPHIMURIUM, Strain/Indicator: TA1537, Metabolic Activation: RAT, LIVER, S-9, AROCLOR 1254 (10%), Method: PREINCUBATION) is “inactive; negative” and the mutagenic call under setting [4] is “active; positive”.
Take `Nc1ccc(Nc2c3ccccc3nc3ccccc23)cc1`: the mutagenic call (Test System: AMES SALMONELLA TYPHIMURIUM, Strain/Indicator: TA1537, Metabolic Activation: NONE, Method: STANDARD PLATE) is “active; positive”.
With `COC1OC(=O)C(Cl)=C1C(Cl)Cl` (stereo unspecified), under setting [3], the mutagenic call is “active; positive”.
